Experimental data: patent EP0013144A1, “Substituted diphenylamine derivatives, compositions and herbicidal uses thereof, and processes for their preparation” (ICI AUSTRALIA LIMITED, priority 1978, dated 1980)

Assays:
Assay type in all cases: in vivo
[1] = test system: Ipomea; assay: Pre-emergence herbicidal activity (Example 31); settings: after three weeks
Protocol: (§1) Concentrated formulations of the compounds of the invention were prepared by: • a) in the case of oils and waxy solids, dissolving the compound in toluene containing 7% v/v "Teric" N13 ("Teric" is a Trade MarK and "Teric" N13, a product of ethoxylation of nonylphenol, is available from ICI Australia Limited) and 3% v/v "Kemmat" SC15B ("Kemmat" is a Trade Mark and "Kemmat" SC15B is a formulation of calcium dodecylbenzene sulfonate); or • b) in the case of crystalline solids, adding 5 parts by weight of the compound and 1 part by weight of . ''Dyapol" PT ("Dyapol" is a Trade Mark and "Dyapol" PT is an anionic suspending agent) to 94 parts by weight of an aqueous solution containing 0.25% v/v of "Teric" N8 (a product of ethoxylation of nonylphenol) and ball-milling the mixture to produce a stable suspension. The emulsifiable concentrates and suspensions were then diluted with water to give an aqueous composition of the required concentration suitable for use in the evaluation of the pre-emergence and post-emergence herbicidal activity of the compounds of the invention.
(§2) The pre-emergent herbicidal activity of the compounds of the invention formulated as described in Example 30 was assessed by the following procedure.
(§3) The seeds of the test species were sown in rows 2 cm deep in soil contained in seed boxes. The monocotyledonous plants and the dicotyledonous plants were sprayed with the required quantity of a composition of the invention. Two duplicate seed Doxes were prepared in the same manner but were not sprayed with a composition of the invention and were used for comparison purposes. All the boxes were placed in a glasshouse, lightly watered with an overhead spray to initiate germination and then sub-irrigated as required for optimum plant growth. After three weeks the boxes were removed from the glasshouse and the effect of the treatment was visually assessed. The results are presented in Table 3 where the damage to plants is rated on a scale of from 0 to 3 where 0 represents from 0 to 25% damage, 3 represents 75 to 99% kill and 3+ represents 100% kill.
(§4) A dash (-) means that no experiment was carried out.

[2] = test system: Mustard; assay: Pre-emergence herbicidal activity (Example 31); settings: after three weeks
Protocol: as §1, §2, §3, §4

[3] = test system: Sunflower; assay: Pre-emergence herbicidal activity (Example 31); settings: after three weeks
Protocol: as §1, §2, §3, §4

[4] = test system: Ryegrass; assay: Pre-emergence herbicidal activity (Example 31); design: key: 0-3 scale: 0 = 0-25% damage, 3 = 75-99% kill, 3+ = 100% kill; settings: after three weeks
Protocol: as §1, §2, §3, §4

[5] = test system: Wheat; assay: Pre-emergence herbicidal activity (Example 31); design: key: 0-3 scale: 0 = 0-25% damage, 3 = 75-99% kill, 3+ = 100% kill; settings: after three weeks
Protocol: as §1, §2, §3, §4

[6] = test system: Ryegrass; assay: Post-emergence herbicidal activity (Example 32); settings: 3 weeks after spraying
Protocol: as §1
(§5) The post-emergent herbicidal activity of the compounds of the invention formulated as described in Example 30 was assessed by the following procedure.
(§6) The seeds of the test species were sown in rows 2 cm deep in soil contained in seed boxes. The monocotyledonous plants and the dicotyledonous plants were sown in separate seed boxes in duplicate. The four seed boxes were placed in a glasshouse, lightly watered with an overhead spray to initiate germination and then sub-irrigated as required for optimum plant growth. After the plants had grown to a height of about 10 to 12.5 cm one box of each of the monocotyledonous plants and the dicotyledonous plants was removed from the glasshouse and sprayed with the required quantity of a composition of the invention. After spraying the boxes were returned to the glasshouse for further 3 weeks and the effects of the treatment was visually assessed by comparison with the untreated controls. The results are presented in Table 4 where the damage to plants is rated on a scale of from 0 to 3 where 0 represents 0 to 25% damage, 3 represents 75 to 99% kill and 3+ represents 100% kill. A dash (-) means that no experiment was carried out.

[7] = test system: Ipomea; assay: Post-emergence herbicidal activity (Example 32); settings: 3 weeks after spraying
Protocol: as §1, §5, §6

[8] = test system: Japanese millet; assay: Post-emergence herbicidal activity (Example 32); settings: 3 weeks after spraying
Protocol: as §1, §5, §6

[9] = test system: Wild Oats; assay: Post-emergence herbicidal activity (Example 32); settings: 3 weeks after spraying
Protocol: as §1, §5, §6

[10] = test system: Mustard; assay: Post-emergence herbicidal activity (Example 32); settings: 3 weeks after spraying
Protocol: as §1, §5, §6

[11] = test system: Sunflower; assay: Post-emergence herbicidal activity (Example 32); settings: 3 weeks after spraying
Protocol: as §1, §5, §6

[12] = test system: Wheat; assay: Post-emergence herbicidal activity (Example 32); design: key: 0-3 scale: 0 = 0-25% damage, 3 = 75-99% kill, 3+ = 100% kill; settings: 3 weeks after spraying
Protocol: as §1, §5, §6

SMILES	damage to plants, Ip ([1]; 1 kg/ha)	damage to plants, Ip ([1]; 5 kg/ha)	damage to plants, Ms ([2]; 1 kg/ha)	damage to plants, Ms ([2]; 5 kg/ha)	damage to plants, Sf ([3]; 1 kg/ha)	damage to plants, Sf ([3]; 5 kg/ha)	damage to plants, Rg ([4]; 1 kg/ha)	damage to plants, Rg ([4]; 5 kg/ha)	damage to plants, Wh ([5]; 1 kg/ha)	damage to plants, Wh ([5]; 5 kg/ha)	damage to plants, Rg ([6]; 1 kg/ha)	damage to plants, Rg ([6]; 5 kg/ha)	damage to plants, Ip ([7]; 1 kg/ha)	damage to plants, Ip ([7]; 5 kg/ha)	damage to plants, Jm ([8]; 1 kg/ha)	damage to plants, Jm ([8]; 5 kg/ha)	damage to plants, Ot ([9]; 5 kg/ha)	damage to plants, Ms ([10]; 5 kg/ha)	damage to plants, Sf ([11]; 5 kg/ha)	damage to plants, Wh ([12]; 5 kg/ha)	also measured
CC(Oc1ccc(N(C)c2ccc(C(F)(F)F)cc2[N+](=O)[O-])cc1)C(=O)OC1CCCCC1 (stereo not shown) [Compound 80]	0 (0 represents from 0 to 25% damage)	0 (0 represents from 0 to 25% damage)	0 (0 represents from 0 to 25% damage)	0 (0 represents from 0 to 25% damage)	0 (0 represents from 0 to 25% damage)	0 (0 represents from 0 to 25% damage)	3 (3 represents 75 to 99% kill)	3+ (3+ represents 100% kill)	0 (0 represents from 0 to 25% damage)	1	3 (3 represents 75 to 99% kill)	3+ (3+ represents 100% kill)	0 (0 represents 0 to 25% damage)	0 (0 represents 0 to 25% damage)	3+ (3+ represents 100% kill)	3+ (3+ represents 100% kill)	3+ (3+ represents 100% kill)	0 (0 represents 0 to 25% damage)	0 (0 represents 0 to 25% damage)	3 (3 represents 75 to 99% kill)	damage to plants, Ot ([9]; 1 kg/ha): 3+ (3+ represents 100% kill); damage to plants, Ms ([10]; 1 kg/ha): 0 (0 represents 0 to 25% damage); damage to plants, Sf ([11]; 1 kg/ha): 0 (0 represents 0 to 25% damage); damage to plants, Wh ([12]; 1 kg/ha): 1
COC(=O)C(C)Oc1ccc(N(C)c2ccc(C(F)(F)F)cc2)cc1 (stereo not shown) [Compound 14, Methyl 2-[4-(4-trifluoromethyl-N-methylanilino)phenoxy]-propionate]												0 (0 represents 0 to 25% damage)		3+ (3+ represents 100% kill)		3 (3 represents 75 to 99% kill)	0 (0 represents 0 to 25% damage)	3+ (3+ represents 100% kill)	2	0 (0 represents 0 to 25% damage)	
COC(=O)C(C)Oc1ccc(Nc2ccc(C)cc2[N+](=O)[O-])cc1 (stereo not shown) [Compound 26]	0 (0 represents from 0 to 25% damage)	0 (0 represents from 0 to 25% damage)	0 (0 represents from 0 to 25% damage)	0 (0 represents from 0 to 25% damage)	0 (0 represents from 0 to 25% damage)	0 (0 represents from 0 to 25% damage)	2	3+ (3+ represents 100% kill)	0 (0 represents from 0 to 25% damage)	1	3 (3 represents 75 to 99% kill)	3 (3 represents 75 to 99% kill)	0 (0 represents 0 to 25% damage)	0 (0 represents 0 to 25% damage)	3 (3 represents 75 to 99% kill)	3+ (3+ represents 100% kill)	1	0 (0 represents 0 to 25% damage)	0 (0 represents 0 to 25% damage)	3 (3 represents 75 to 99% kill)	damage to plants, Ot ([9]; 1 kg/ha): 1; damage to plants, Ms ([10]; 1 kg/ha): 0 (0 represents 0 to 25% damage); damage to plants, Sf ([11]; 1 kg/ha): 0 (0 represents 0 to 25% damage); damage to plants, Wh ([12]; 1 kg/ha): 2
